These results are taken from US8492376B2, “Heteroaryl-cyclohexyl-tetraazabenzo[e]azulenes” (Hoffmann-La Roche Inc., priority 2010, dated 2013).

Counter-ions that a name gives are not always drawn.

The assay addresses T1, human V1a receptor (Homo sapiens, UniProt P37288).
T1 construct: expressed in transfected cells; host or cells: HEK293 cells, transiently transfected; cell membranes
The experiment in a line: human V1a receptor binding studies (3H-Vasopressin, SPA beads). Conditions: membranes from HEK293 cells transiently transfected with human V1a receptor, Ki calculated from IC50 by the Cheng-Prussoff equation, read-out: pKi (hV1a) (converted). The protocol: The human V1a receptor was cloned by RT-PCR from total human liver RNA. The coding sequence was subcloned in an expression vector after sequencing to confirm the identity of the amplified sequence. […] Cell membranes were prepared from HEK293 cells transiently transfected with the expression vector and grown in 20 liter fermenters with the following protocol.
50 g of cells are resuspended in 30 ml freshly prepared ice cold Lyses buffer (50 mM HEPES, 1 mM EDTA, 10 mM magnesium dichloride adjusted to pH=7.4+complete cocktail of protease inhibitor (Roche Diagnostics)). Homogenized with Polytron for 1 min and solicited on ice for 2×2 minutes at 80% intensity (Vibrate solicitor). The preparation is centrifuged 20 min at 500 g at 4° C., the pellet is discarded and the supernatant centrifuged 1 hour at 43′000 g at 4° C. (19′000 rpm). The pellet is resuspended in 12.5 ml Lyses buffer+12.5 ml sucrose 20% and homogenized using a Polytron for 1-2 min. The protein concentration is determined by the Bradford method and aliquots are stored at −80° C. until use. For binding studies 60 mg Yttrium silicate SPA beads (Habersham®) are mixed with an aliquot of membrane in binding buffer (50 mM Tris, 120 mM sodium chloride, 5 mM potassium chloride, 2 mM calcium dichloride, 10 mM magnesium dichloride) for 15 minutes with mixing. 50 μl of bead/membrane mixture is then added to each well of a 96 well plate, followed by 50 μl of 4 nM 3H-Vasopressin (American Radiolabeled Chemicals). For total binding measurement 100 μl of binding buffer are added to the respective wells, for non-specific binding 100 μl of 8.4 mM cold vasopressin and for compound testing 100 μl of a serial dilution of each compound in 2% dimethyl sulfoxide. The plate is incubated 1 h at room temperature, centrifuged 1 min at 1000 g and counted on a Packard Top-Count. Non-specific binding counts are subtracted from each well and data is normalized to the maximum specific binding set at 100%. To calculate an IC50 the curve is fitted using a non-linear regression model (XLfit) and the Ki is calculated using the Cheng-Prussoff equation.

T1 sequence (P37288 whole entry): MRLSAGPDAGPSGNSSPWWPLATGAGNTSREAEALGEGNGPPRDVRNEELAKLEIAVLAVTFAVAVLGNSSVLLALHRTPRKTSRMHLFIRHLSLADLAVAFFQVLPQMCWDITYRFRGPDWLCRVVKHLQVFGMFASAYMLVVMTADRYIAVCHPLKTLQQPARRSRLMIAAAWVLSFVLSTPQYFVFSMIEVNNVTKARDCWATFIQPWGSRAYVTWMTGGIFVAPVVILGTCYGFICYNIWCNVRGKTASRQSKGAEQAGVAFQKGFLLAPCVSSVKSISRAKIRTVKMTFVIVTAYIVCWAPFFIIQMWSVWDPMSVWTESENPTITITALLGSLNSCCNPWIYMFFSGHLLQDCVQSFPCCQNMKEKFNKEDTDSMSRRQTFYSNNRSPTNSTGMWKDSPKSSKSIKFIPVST

`Fc1cnc([C@H]2CC[C@H](c3nnc4n3-c3ccc(Cl)cc3CNC4)CC2)c(F)c1` [Example 86, trans-8-Chloro-1-[4-(3,5-difluoro-pyridin-2-yl)-cyclohexyl]-5,6-dihydro-4H-2,3,5,10b-tetraaza-benzo[e]azulene]: the Ki was 9.33 nM. Take `Cc1cnc(C)c([C@H]2CC[C@H](c3nnc4n3-c3ccc(Cl)cc3CN(C(=O)OC(C)(C)C)C4)CC2)n1` [Example 78, trans-8-Chloro-1-[4-(3,6-dimethyl-pyrazin-2-yl)-cyclohexyl]-4H,6H-2,3,5,10b-tetraaza-benzo[e]azulene-5-carboxylic acid tert-butyl ester]: the Ki was 0.794 nM. Regarding `CC(C)c1cccc([C@H]2CC[C@H](c3nnc4n3-c3ccc(Cl)cc3CNC4)CC2)n1` [Example 11, trans-8-Chloro-1-[4-(6-isopropyl-pyridin-2-yl)-cyclohexyl]-5,6-dihydro-4H-2,3,5,10b-tetraaza-benzo[e]azulene hydrochloride], the Ki is 70.8 nM.

Take `CC(C)c1cccc([C@H]2CC[C@H](c3nnc4n3-c3ccc(Cl)cc3CN(C(=O)OC(C)(C)C)C4)CC2)n1` [Example 10, trans-8-Chloro-1-[4-(6-isopropyl-pyridin-2-yl)-cyclohexyl]-4H,6H-2,3,5,10b-tetraaza-benzo[e]azulene-5-carboxylic acid tert-butyl ester]: the Ki was 2.19 nM. `CCc1cccc([C@H]2CC[C@H](c3nnc4n3-c3ccc(Cl)cc3CNC4)CC2)n1` [Example 8, trans-8-Chloro-1-[4-(6-ethyl-pyridin-2-yl)-cyclohexyl]-5,6-dihydro-4H-2,3,5,10b-tetraaza-benzo[e]azulene]: the Ki was 44.7 nM. Take `Fc1cccnc1[C@H]1CC[C@H](c2nnc3n2-c2ccc(Cl)cc2CNC3)CC1` [Example 29, trans-8-Chloro-1-[4-(3-fluoro-pyridin-2-yl)-cyclohexyl]-5,6-dihydro-4H-2,3,5,10b-tetraaza-benzo[e]azulene]: the Ki is 1.51 nM. `CN1Cc2cc(Cl)ccc2-n2c(nnc2[C@H]2CC[C@H](c3ncccn3)CC2)C1` [Example 60, trans-8-Chloro-5-methyl-1-(4-pyrimidin-2-yl-cyclohexyl)-5,6-dihydro-4H-2,3,5,10b-tetraaza-benzo[e]azulene]: the Ki is 2.19 nM. On to `Cc1cnc(C)c([C@H]2CC[C@H](c3nnc4n3-c3ccc(Cl)cc3CN(C)C4)CC2)n1` [Example 80, trans-8-Chloro-1-[4-(3,6-dimethyl-pyrazin-2-yl)-cyclohexyl]-5-methyl-5,6-dihydro-4H-2,3,5,10b-tetraaza-benzo[e]azulene], for which the Ki was 7.24 nM. Regarding `Cc1cc(C)nc([C@H]2CC[C@H](c3nnc4n3-c3ccc(Cl)cc3CN(C)C4)CC2)n1` [Example 65, trans-8-Chloro-1-[4-(4,6-dimethyl-pyrimidin-2-yl)-cyclohexyl]-5-methyl-5,6-dihydro-4H-2,3,5,10b-tetraaza-benzo[e]azulene], the Ki is 2.29 nM. Regarding `Cc1cnc(C)c([C@H]2CC[C@H](c3nnc4n3-c3ccc(Cl)cc3CNC4)CC2)n1` [Example 79, trans-8-Chloro-1-[4-(3,6-dimethyl-pyrazin-2-yl)-cyclohexyl]-5,6-dihydro-4H-2,3,5,10b-tetraaza-benzo[e]azulene hydrochloride], the Ki was 6.76 nM. As for `CN1Cc2cc(Cl)ccc2-n2c(nnc2[C@H]2CC[C@H](c3cccnn3)CC2)C1` [Example 81, trans-8-Chloro-5-methyl-1-(4-pyridazin-3-yl-cyclohexyl)-5,6-dihydro-4H-2,3,5,10b-tetraaza-benzo[e]azulene], the Ki was 4.68 nM.

In the case of `CC(C)(C)OC(=O)N1Cc2cc(Cl)ccc2-n2c(nnc2[C@H]2CC[C@H](c3ncccn3)CC2)C1` [Example 57, trans-8-Chloro-1-(4-pyrimidin-2-yl-cyclohexyl)-4H,6H-2,3,5,10b-tetraaza-benzo[e]azulene-5-carboxylic acid tert-butyl ester], the Ki was 1.58 nM. Under `Clc1ccc2c(c1)CNCc1nnc([C@H]3CC[C@H](c4cccnc4)CC3)n1-2` [Example 49, trans-8-Chloro-1-(4-pyridin-3-yl-cyclohexyl)-5,6-dihydro-4H-2,3,5,10b-tetraaza-benzo[e]azulene] stands 33.9 nM. Regarding `Cc1cccc([C@H]2CC[C@H](c3nnc4n3-c3ccc(Cl)cc3CN(C(=O)OC(C)(C)C)C4)CC2)n1` [Example 4, trans-8-Chloro-1-[4-(6-methyl-pyridin-2-yl)-cyclohexyl]-4H,6H-2,3,5,10b-tetraaza-benzo[e]azulene-5-carboxylic acid tert-butyl ester], the Ki is 0.2 nM. For the compound `Cc1nccc([C@H]2CC[C@H](c3nnc4n3-c3ccc(Cl)cc3CNC4)CC2)n1` [Example 67, trans-8-Chloro-1-[4-(2-methyl-pyrimidin-4-yl)-cyclohexyl]-5,6-dihydro-4H-2,3,5,10b-tetraaza-benzo[e]azulene], the Ki was 1100 nM. Turning to `Clc1ccc2c(c1)CNCc1nnc([C@H]3CC[C@H](c4cccnc4Cl)CC3)n1-2` [Example 52, trans-8-Chloro-1-[4-(2-chloro-pyridin-3-yl)-cyclohexyl]-5,6-dihydro-4H-2,3,5,10b-tetraaza-benzo[e]azulene], the Ki is 81.3 nM. For `Fc1ccc2c(c1)CNCc1nnc([C@H]3CC[C@H](c4ncccc4F)CC3)n1-2` [Example 43, trans-8-Fluoro-[4-(3-fluoro-pyridin-2-yl)-cyclohexyl]-5,6-dihydro-4H-2,3,5,10b-tetraaza-benzo[e]azulene], the Ki is 24.5 nM. Under `CN1Cc2cc(Cl)ccc2-n2c(nnc2[C@H]2CC[C@@H](c3ncccn3)CC2)C1` [Example 62, cis-8-Chloro-5-methyl-1-(4-pyrimidin-2-yl-cyclohexyl)-5,6-dihydro-4H-2,3,5,10b-tetraaza-benzo[e]azulene] stands 95.5 nM; under `CN1Cc2cc(Cl)ccc2-n2c(nnc2[C@H]2CC[C@H](c3cccc(Cl)n3)CC2)C1` [Example 18, trans-8-Chloro-1-[4-(6-chloro-pyridin-2-yl)-cyclohexyl]-5-methyl-5,6-dihydro-4H-2,3,5,10b-tetraaza-benzo[e]azulene], 0.603 nM. Consider `Cc1nccc([C@H]2CC[C@H](c3nnc4n3-c3ccc(Cl)cc3CN(C(=O)OC(C)(C)C)C4)CC2)n1` [Example 66, trans-8-Chloro-1-[4-(2-methyl-pyrimidin-4-yl)-cyclohexyl]-4H,6H-2,3,5,10b-tetraaza-benzo[e]azulene-5-carboxylic acid tert-butyl ester], for which the Ki was 9.77 nM.

As to `Cc1cc(C)nc([C@H]2CC[C@H](c3nnc4n3-c3ccc(Cl)cc3CN(C(=O)OC(C)(C)C)C4)CC2)n1` [Example 63, trans-8-Chloro-1-[4-(4,6-dimethyl-pyrimidin-2-yl)-cyclohexyl]-4H,6H-2,3,5,10b-tetraaza-benzo[e]azulene-5-carboxylic acid tert-butyl ester], the Ki is 0.398 nM.

As for `CN1Cc2cc(Cl)ccc2-n2c(nnc2[C@H]2CC[C@H](c3cnccn3)CC2)C1` [Example 71, trans-8-Chloro-5-methyl-1-(4-pyrazin-2-yl-cyclohexyl)-5,6-dihydro-4H-2,3,5,10b-tetraaza-benzo[e]azulene], the Ki is 1.7 nM. Take `CN1Cc2cc(Cl)ccc2-n2c(nnc2[C@H]2CC[C@@H](c3ncccc3F)CC2)C1` [Example 47, cis-8-Chloro-1-[4-(3-fluoro-pyridin-2-yl)-cyclohexyl]-5-methyl-5,6-dihydro-4H-2,3,5,10b-tetraaza-benzo[e]azulene]: the Ki is 25.1 nM. As for `COc1cccc([C@H]2CC[C@H](c3nnc4n3-c3ccc(Cl)cc3CN(C(=O)OC(C)(C)C)C4)CC2)n1` [Example 13, trans-8-Chloro-1-[4-(6-methoxy-pyridin-2-yl)-cyclohexyl]-4H,6H-2,3,5,10b-tetraaza-benzoazulene-5-carboxylic acid tert-butyl ester], the Ki is 0.501 nM. For `CN1Cc2cc(Cl)ccc2-n2c(nnc2[C@H]2CC[C@H](c3cccnc3)CC2)C1` [Example 50, trans-8-Chloro-5-methyl-1-(4-pyridin-3-yl-cyclohexyl)-5,6-dihydro-4H-2,3,5,10b-tetraaza-benzo[e]azulene], the Ki was 4.57 nM. Under `Cc1cncc([C@H]2CC[C@H](c3nnc4n3-c3ccc(Cl)cc3CNC4)CC2)n1` [Example 73, trans-8-Chloro-1-[4-(6-methyl-pyrazin-2-yl)-cyclohexyl]-5,6-dihydro-4H-2,3,5,10b-tetraaza-benzo[e]azulene] stands 55 nM; under `Clc1ccc2c(c1)CNCc1nnc([C@H]3CC[C@H](c4ncccc4Cl)CC3)n1-2` [Example 83, trans-8-Chloro-1-[4-(3-chloro-pyridin-2-yl)-cyclohexyl]-5,6-dihydro-4H-2,3,5,10b-tetraaza-benzo[e]azulene], 7.24 nM.
